What was measured:
[1] = DRUGMATRIX: Platelet-Derived Growth Factor (PDGF) radioligand binding (ligand: [125I] PDGF); type: cell-based; conditions: nih3t3; Not Active = under 50% inhibition at 10 µM
Nitric oxide synthase 1 = Nitric oxide synthase 1 (Rattus norvegicus, UniProt P29476); type: tissue-based, Cerebellum; further: in other assays of this panel Not Active means under 50% inhibition at 10 µM
[2] = DRUGMATRIX: beta-Lactamase enzyme inhibition (substrate: Nitrocefin); design: species or system Bacillus cereus; conditions: Not Active = under 50% inhibition at 10 µM
Cathepsin G = target: T1, Cathepsin G (Homo sapiens, UniProt P08311); assay: biochemical; type: tissue-based, Neutrophil; conditions: neutrophil;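 further: inhibition of Cathepsin G enzyme activity, tested on an AMC-conjugated peptide substrate; in other assays of this panel Not Active means under 50% inhibition at 10 µM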
T1 sequence (P08311 whole entry): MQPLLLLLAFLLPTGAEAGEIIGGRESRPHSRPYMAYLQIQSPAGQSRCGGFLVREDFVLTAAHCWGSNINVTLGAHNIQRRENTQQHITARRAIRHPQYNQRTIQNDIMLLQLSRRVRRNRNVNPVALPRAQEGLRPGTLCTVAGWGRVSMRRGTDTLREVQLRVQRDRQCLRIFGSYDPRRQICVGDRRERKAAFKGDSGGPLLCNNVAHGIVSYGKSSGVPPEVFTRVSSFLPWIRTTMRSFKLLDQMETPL

[3] = target: T2, Muscarinic acetylcholine receptor M4 (Homo sapiens, UniProt P08173); type: cell membranes, CHO-K1, Membrane; conditions: cho-k1; further: in other assays of this panel Not Active means under 50% inhibition at 10 µM
T2 sequence (P08173 whole entry): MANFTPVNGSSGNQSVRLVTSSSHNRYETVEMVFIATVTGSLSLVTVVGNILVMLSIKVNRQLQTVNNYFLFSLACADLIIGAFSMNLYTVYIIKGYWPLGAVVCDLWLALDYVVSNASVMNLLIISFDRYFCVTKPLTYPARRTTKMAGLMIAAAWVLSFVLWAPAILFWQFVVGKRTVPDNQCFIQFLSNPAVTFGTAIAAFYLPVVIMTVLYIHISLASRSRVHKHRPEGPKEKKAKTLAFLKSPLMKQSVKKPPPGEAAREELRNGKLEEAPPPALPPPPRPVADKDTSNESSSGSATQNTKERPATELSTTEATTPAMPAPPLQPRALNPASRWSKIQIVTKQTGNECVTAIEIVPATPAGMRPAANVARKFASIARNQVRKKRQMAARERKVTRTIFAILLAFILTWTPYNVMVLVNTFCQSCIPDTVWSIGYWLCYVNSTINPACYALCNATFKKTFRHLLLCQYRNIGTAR

[4] = DRUGMATRIX: Phosphodiesterase PDE3 enzyme inhibition (substrate: [3H]cAMP + cAMP); type: tissue-based, Homo sapiens; conditions: platelet; Not Active = under 50% inhibition at 10 µM
[5] = DRUGMATRIX: Potassium Channel [KATP] radioligand binding (ligand: [3H] Glyburide); type: cell membranes, Membrane; conditions: hit-t15; Not Active = under 50% inhibition at 10 µM

Chain of Nitric oxide synthase 1 (P29476 whole entry): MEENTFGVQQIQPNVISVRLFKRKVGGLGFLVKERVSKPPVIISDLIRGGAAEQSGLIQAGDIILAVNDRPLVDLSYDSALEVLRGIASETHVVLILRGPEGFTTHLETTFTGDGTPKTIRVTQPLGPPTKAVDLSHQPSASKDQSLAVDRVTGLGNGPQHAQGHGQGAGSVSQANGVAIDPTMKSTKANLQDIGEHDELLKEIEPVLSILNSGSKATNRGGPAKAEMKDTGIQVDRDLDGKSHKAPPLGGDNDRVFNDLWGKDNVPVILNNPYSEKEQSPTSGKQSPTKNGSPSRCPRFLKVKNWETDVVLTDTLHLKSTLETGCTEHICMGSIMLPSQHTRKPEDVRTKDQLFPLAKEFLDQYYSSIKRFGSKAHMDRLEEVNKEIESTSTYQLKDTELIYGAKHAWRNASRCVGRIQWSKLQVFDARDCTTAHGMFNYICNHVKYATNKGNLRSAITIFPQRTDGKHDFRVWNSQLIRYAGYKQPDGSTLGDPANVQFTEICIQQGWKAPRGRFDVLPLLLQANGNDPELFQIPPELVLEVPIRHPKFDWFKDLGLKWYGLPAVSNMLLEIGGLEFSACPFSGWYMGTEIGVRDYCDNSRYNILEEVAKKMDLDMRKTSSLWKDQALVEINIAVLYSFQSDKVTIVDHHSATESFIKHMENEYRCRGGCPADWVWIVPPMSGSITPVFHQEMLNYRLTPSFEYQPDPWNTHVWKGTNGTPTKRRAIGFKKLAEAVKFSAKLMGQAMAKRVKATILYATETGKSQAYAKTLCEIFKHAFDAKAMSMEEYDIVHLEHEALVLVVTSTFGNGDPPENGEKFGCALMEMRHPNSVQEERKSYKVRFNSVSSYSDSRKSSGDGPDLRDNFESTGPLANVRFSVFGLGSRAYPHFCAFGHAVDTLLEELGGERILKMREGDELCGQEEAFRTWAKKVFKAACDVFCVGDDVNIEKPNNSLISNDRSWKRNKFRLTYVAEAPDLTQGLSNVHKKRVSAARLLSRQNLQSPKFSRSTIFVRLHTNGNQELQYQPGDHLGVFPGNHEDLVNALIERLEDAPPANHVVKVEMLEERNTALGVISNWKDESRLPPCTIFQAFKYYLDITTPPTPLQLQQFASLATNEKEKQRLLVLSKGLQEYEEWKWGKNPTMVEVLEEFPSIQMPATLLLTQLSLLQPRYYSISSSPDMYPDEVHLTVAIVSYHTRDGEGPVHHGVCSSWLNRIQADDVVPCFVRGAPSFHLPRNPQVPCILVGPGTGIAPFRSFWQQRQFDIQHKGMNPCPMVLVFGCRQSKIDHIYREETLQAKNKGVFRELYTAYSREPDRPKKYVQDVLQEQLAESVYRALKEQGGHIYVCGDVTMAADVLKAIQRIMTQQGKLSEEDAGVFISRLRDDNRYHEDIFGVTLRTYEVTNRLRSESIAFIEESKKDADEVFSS

Cc1nnc(NS(=O)(=O)c2ccc(N)cc2)s1 [SULFAMETHIZOLE]
Not Active: IC50 [1] | Ki [1] | IC50 (Nitric oxide synthase 1) | IC50 [2] | Ki [2] | IC50 (Cathepsin G) | IC50 [3] | IC50 [4] | Ki [4] | IC50 [5] | Ki [5]

Cc1ccc(S(=O)(=O)NC(=O)NN2CCCCCC2)cc1 [TOLAZAMIDE]
Not Active: IC50 [1] | Ki [1] | IC50 (Nitric oxide synthase 1) | IC50 [2] | Ki [2] | IC50 (Cathepsin G) | IC50 [3] | IC50 [4] | Ki [4] | IC50 [5] | Ki [5]

CCC(C)(C)C(=O)O[C@H]1C[C@@H](C)C=C2C=C[C@H](C)[C@H](CC[C@@H]3C[C@@H](O)CC(=O)O3)[C@H]21 [SIMVASTATIN]
Not Active: IC50 [1] | Ki [1] | IC50 (Nitric oxide synthase 1) | IC50 [2] | Ki [2] | IC50 (Cathepsin G) | IC50 [3] | IC50 [4] | Ki [4] | IC50 [5] | Ki [5]

Cc1ccnc(NS(=O)(=O)c2ccc(N)cc2)n1 [SULFAMERAZINE]
Not Active: IC50 [1] | Ki [1] | IC50 (Nitric oxide synthase 1) | IC50 [2] | Ki [2] | IC50 (Cathepsin G) | IC50 [3] | IC50 [4] | Ki [4] | IC50 [5] | Ki [5]

OC[C@@H](O)[C@@H](O)[C@H](O)[C@H](O)CO [MANNITOL]
Not Active: IC50 [1] | Ki [1] | IC50 (Nitric oxide synthase 1) | IC50 [2] | Ki [2] | IC50 (Cathepsin G) | IC50 [3] | IC50 [4] | Ki [4] | IC50 [5] | Ki [5]

CCN(CC)N=O [N-NITROSODIETHYLAMINE]
Not Active: IC50 [1] | Ki [1] | IC50 (Nitric oxide synthase 1) | IC50 [2] | Ki [2] | IC50 (Cathepsin G) | IC50 [3] | IC50 [4] | Ki [4] | IC50 [5] | Ki [5]

CC(=O)O[C@]1(C(C)=O)CC[C@H]2[C@@H]3C[C@H](C)C4=CC(=O)CC[C@]4(C)[C@H]3CC[C@@]21C [MEDROXYPROGESTERONE ACETATE]
Not Active: IC50 [1] | Ki [1] | IC50 (Nitric oxide synthase 1) | IC50 [2] | Ki [2] | IC50 (Cathepsin G) | IC50 [3] | IC50 [4] | Ki [4] | IC50 [5] | Ki [5]

CCN1CCCC1CNC(=O)c1cc(S(N)(=O)=O)ccc1OC (stereo unspecified) [SULPIRIDE]
Not Active: IC50 [1] | Ki [1] | IC50 (Nitric oxide synthase 1) | IC50 [2] | Ki [2] | IC50 (Cathepsin G) | IC50 [3] | IC50 [4] | Ki [4] | IC50 [5] | Ki [5]

CN1C[C@H](CNC(=O)OCc2ccccc2)C[C@@H]2c3cccc4c3c(cn4C)C[C@H]21 [METERGOLINE]
Not Active: IC50 [1] | Ki [1] | IC50 (Nitric oxide synthase 1) | IC50 [2] | Ki [2] | IC50 (Cathepsin G) | IC50 [3] | IC50 [4] | Ki [4] | IC50 [5] | Ki [5]

CC(Cl)(Cl)Cl [TRICHLOROETHANE]
Not Active: IC50 [1] | Ki [1] | IC50 (Nitric oxide synthase 1) | IC50 [2] | Ki [2] | IC50 (Cathepsin G) | IC50 [3] | IC50 [4] | Ki [4] | IC50 [5] | Ki [5]

CC1=C(/C=C/C(C)=C/C=C/C(C)=C/C(=O)O)C(C)(C)CCC1 [TRETINOIN]
Not Active: IC50 [1] | Ki [1] | IC50 (Nitric oxide synthase 1) | IC50 [2] | Ki [2] | IC50 (Cathepsin G) | IC50 [3] | IC50 [4] | Ki [4] | IC50 [5] | Ki [5]
